PubChem BioAssay AID328 (DTP/NCI, 2004)
“And” between values parts separate entries of the source, which are not always exact repeats. Equal entries are not always repeated. Inconclusive results and toxic doses are left out.

Tested on: BDF1 mice, P388 leukemia ip, median survival T/C
Assay: NCI In Vivo Anticancer Drug Screen. Data for tumor model P388 Leukemia (intraperitoneal) in B6D2F1 (BDF1) mice
Conditions: endpoint: median survival time, higher = longer survival
Method in brief: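 Read-out is survival of treated animals expressed relative to the vehicle group, as a T/C ratio.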

[1] = dose: 50.0 mg/kg/injection, schedule: Q04DX003 (ip), vehicle: saline with Tween-80
[2] = dose: 100.0 mg/kg/injection, schedule: Q04DX003 (ip), vehicle: saline with Tween-80
[3] = dose: 200.0 mg/kg/injection, schedule: Q04DX003 (ip), vehicle: saline with Tween-80
[4] = dose: 100.0 mg/kg/injection, schedule: Q01DX009 (ip), vehicle: saline with Tween-80

## Cc1ccc(NC(=O)C2CCC(C)(C(=O)O)C2(C)C)cc1 (stereo not drawn)
[1]
  T/C: 109 % of control
[2]
  T/C: 90 % of control
[3]
  T/C: 104 % of control

## O=S(=O)(Cc1ccc(Cl)cc1)c1nc2ccccc2s1
dose: 50.0 mg/kg/injection, schedule: Q01DX005 (ip), vehicle: saline with Tween-80
  T/C: 107 % of control
dose: 100.0 mg/kg/injection, schedule: Q01DX005 (ip), vehicle: saline with Tween-80
  T/C: 105 % of control

## CS(=O)(=O)OCC(O)C(O)COS(C)(=O)=O (stereo not drawn)
dose: 50.0 mg/kg/injection, schedule: Q01DX010 (ip), vehicle: saline
  T/C: 109 % of control
[4]
  T/C: 91 % of control
dose: 100.0 mg/kg/injection, schedule: Q01DX010 (ip), vehicle: saline
  T/C: 109 % of control
dose: 200.0 mg/kg/injection, schedule: Q01DX009 (ip), vehicle: saline with Tween-80
  T/C: 100 % of control
dose: 200.0 mg/kg/injection, schedule: Q01DX010 (ip), vehicle: saline
  T/C: 100 % of control
dose: 400.0 mg/kg/injection, schedule: Q01DX009 (ip), vehicle: saline with Tween-80
  T/C: 87 % of control
dose: 400.0 mg/kg/injection, schedule: Q01DX010 (ip), vehicle: saline
  T/C: 209 % of control
dose: 800.0 mg/kg/injection, schedule: Q01DX010 (ip), vehicle: saline
  T/C: 163 % of control

## COC1(OC)C2(Cl)CC(=O)C3CC(=O)C3C1(Cl)C(Cl)=C2Cl (stereo not drawn)
dose: 100.0 mg/kg/injection, schedule: Q01DX001 (ip), vehicle: Klucel (hydroxypropylcellulose) (HPC)
  T/C: 103 % of control
dose: 200.0 mg/kg/injection, schedule: Q01DX001 (ip), vehicle: Klucel (hydroxypropylcellulose) (HPC)
  T/C: 107 % of control
dose: 400.0 mg/kg/injection, schedule: Q01DX001 (ip), vehicle: Klucel (hydroxypropylcellulose) (HPC)
  T/C: 96 % of control

## O=C(/C=C\c1ccnc2ccccc12)c1ccc([N+](=O)[O-])cc1
dose: 12.5 mg/kg/injection, schedule: Q04DX003 (ip), vehicle: water
  T/C: 96 % of control
dose: 25.0 mg/kg/injection, schedule: Q01DX009 (ip), vehicle: water
  T/C: 114 % of control
dose: 25.0 mg/kg/injection, schedule: Q04DX003 (ip), vehicle: water
  T/C: 90 % of control
dose: 50.0 mg/kg/injection, schedule: Q01DX009 (ip), vehicle: water
  T/C: 117 % of control
dose: 50.0 mg/kg/injection, schedule: Q04DX003 (ip), vehicle: water
  T/C: 115 % of control
dose: 100.0 mg/kg/injection, schedule: Q01DX009 (ip), vehicle: water
  T/C: 95 % of control
dose: 100.0 mg/kg/injection, schedule: Q04DX003 (ip), vehicle: water
  T/C: 106 % of control and 111 % of control
dose: 200.0 mg/kg/injection, schedule: Q01DX009 (ip), vehicle: water
  T/C: 98 % of control
dose: 200.0 mg/kg/injection, schedule: Q04DX003 (ip), vehicle: water
  T/C: 100 % of control
dose: 400.0 mg/kg/injection, schedule: Q01DX009 (ip), vehicle: water
  T/C: 96 % of control
dose: 400.0 mg/kg/injection, schedule: Q04DX003 (ip), vehicle: water
  T/C: 100 % of control

## CCCC(C)(C)SSC(C)(C)CCC
dose: 25.0 mg/kg/injection, schedule: Q01DX009 (ip), vehicle: saline with Tween-80
  T/C: 90 % of control
dose: 50.0 mg/kg/injection, schedule: Q01DX009 (ip), vehicle: saline with Tween-80
  T/C: 90 % of control and 100 % of control
[4]
  T/C: 95 % of control and 118 % of control
[2]
  T/C: 90 % of control
[3]
  T/C: 113 % of control

## CC(Br)C(=O)NCC(=O)O (stereo not drawn)
[1]
  T/C: 90 % of control
[2]
  T/C: 95 % of control
[3]
  T/C: 100 % of control

## COc1ccc(/C=C(C(=O)O)/C(=C/c2ccc(OC)c(OC)c2)C(=O)O)cc1OC
dose: 100.0 mg/kg/injection, schedule: Q01DX009 (ip), vehicle: Klucel (hydroxypropylcellulose) (HPC)
  T/C: 100 % of control
dose: 200.0 mg/kg/injection, schedule: Q01DX009 (ip), vehicle: Klucel (hydroxypropylcellulose) (HPC)
  T/C: 109 % of control
dose: 200.0 mg/kg/injection, schedule: Q04DX003 (ip), vehicle: Klucel (hydroxypropylcellulose) (HPC)
  T/C: 95 % of control
dose: 400.0 mg/kg/injection, schedule: Q01DX009 (ip), vehicle: Klucel (hydroxypropylcellulose) (HPC)
  T/C: 95 % of control
dose: 400.0 mg/kg/injection, schedule: Q04DX003 (ip), vehicle: Klucel (hydroxypropylcellulose) (HPC)
  T/C: 112 % of control

## S=C(Nc1ccccc1)NC1CCCCCC1
dose: 75.0 mg/kg/injection, schedule: Q04DX003 (ip), vehicle: Klucel (hydroxypropylcellulose) (HPC)
  T/C: 90 % of control
dose: 150.0 mg/kg/injection, schedule: Q04DX003 (ip), vehicle: Klucel (hydroxypropylcellulose) (HPC)
  T/C: 100 % of control
dose: 300.0 mg/kg/injection, schedule: Q04DX003 (ip), vehicle: Klucel (hydroxypropylcellulose) (HPC)
  T/C: 110 % of control

## O=C1N(Cl)C(=O)C(c2ccccc2)(c2ccc(F)cc2)N1Cl (stereo not drawn)
dose: 25.0 mg/kg/injection, schedule: Q04DX003 (ip), vehicle: Klucel (hydroxypropylcellulose) (HPC)
  T/C: 87 % of control
dose: 50.0 mg/kg/injection, schedule: Q04DX003 (ip), vehicle: Klucel (hydroxypropylcellulose) (HPC)
  T/C: 100 % of control
dose: 100.0 mg/kg/injection, schedule: Q04DX003 (ip), vehicle: Klucel (hydroxypropylcellulose) (HPC)
  T/C: 91 % of control

## CC(CC(=N)N)NC(=O)C1CCC(N)=N1 (stereo not drawn)
dose: 150.0 mg/kg/injection, schedule: Q01DX009 (ip), vehicle: saline
  T/C: 98 % of control
dose: 300.0 mg/kg/injection, schedule: Q01DX009 (ip), vehicle: saline
  T/C: 98 % of control
